Measurements reported in patent US20090197811A1, “ORALLY ADMINISTERED PEPTIDES TO IMPROVE OR PREVENT HEPATIC FIBROSIS” (University of Southern California, priority 2007, published 2009).
Several values for one entry are separate records, joined by “and”; a condition that tells them apart may be missing. Equal values may be shown once. Entries after “also recorded” stand apart in the source; their conditions may differ.

What was measured:
Assay type in all cases: in vivo, mouse
C57Bl/6J mice [1] = assay: Western diet model: liver histology, assessment of steatosis and inflammation; details: for Fatty Change Degree of fat / Fatty Change Type (predominant type) / Inflammatory Clusters: individual mice
Method: (§1) Studies were performed in male C5713L/6J mice (Jackson Laboratories, Bar Harbor Me.). Six groups were studied (n=3-5, see FIG. 1) with 4 mice per group at the outset, except for group 2, which was started with n=5; 1 mouse died in group 1. Groups 1, 2, and 3 received the Western diet for 9.5 months; during the last 2.5 months of the 9.5 months, group 2 received SR141716 10 mg/kg/day i.g., and group 3 received D-4F, 125 μg/mouse/day, in the drinking water. Groups 4, 5, and 6 received the Western diet for 7 months followed by standard chow for 2.5 months; during the 2.5 months on standard chow, group 5 received SR141716 and group 6 received D-4F as described for groups 2 and 3, respectively. Additional control groups were studied: 6-month old C57Bl/6J mice as age-matched controls (n=5) and C57Bl/6J mice that received the Western diet for 6 months (n=6).
The slides were coded, without the pathologist knowing the specific treatment group that the slides represented. The histology was graded according to a number of histologic features. The degree of fat was graded as to the approximate percentage of hepatocytes containing fat: 0, absent; +/−, less than 5%; 1+, 5-25%; 2+. 26-50%; 3+, 51-75%; 4+, >75%. The fat was also assessed as to whether it was totally macrovesicular, predominantly macrovesicular, totally microvesicular, predominantly microvesicular, or mixed macro- and microvesicular. In addition, the zone was assessed as to whether the fat was perivenular, periportal, diffuse, or focal. Inflammation was graded as absent, scanty (1 to 3 foci/slide), present (scattered, with 4 to 10 foci/slide), present + (scattered, >10 foci/slide but not numerous), and present ++ (numerous). The type of inflammation was graded as totally mononuclear, predominantly mononuclear, totally neutrophilic, predominantly neutrophilic, and mixed mononuclear-neutrophilic. The hydropic change of hepatocytes was graded as absent, mild, and moderate/severe, with the location noted as perivenular, focal or diffuse.

C57Bl/6J mice [2] = assay: Western diet model: fibrosis by Sirius red whole-section-scanning morphometric image analysis; details: summary statement
Method: as §1
Sirius red staining was performed by the Morphology core of the USC-UCLA Research Center for Alcoholic Liver and Pancreatic Diseases. α-Smooth muscle actin.
Tissue sections stained with Sirius red were scanned by a third-generation Automated Cellular Imaging System (ACIS III), a highly automated microscope-based digital imaging system (Carl Zeiss MicroImaging AIS Inc., Aliso Viejo Calif.). The color of the Sirius red staining in the digitized tissue sections was determined and applied to a pre-existing algorithm that provides the area of a target color in μm^2. The outline of each digitized tissue section was manually traced using the computer's mouse. Areas of large portal tracts and central veins were also outlined manually. The total area (μm^2) of each tissue section and of the total area of large portal tracts and central veins were determined by the image analysis system. The area of fibrosis was calculated as [total area stained by Sirius red minus perivascular staining] as a percentage of the size of the tissue section. This method has the advantage of scanning the entire section, rather than measuring fibrosis in randomly chosen fields.

C57Bl/6J mice [3] = assay: Western diet model: biochemical findings and liver and body weights; details: for GSH / TBARS: liver; for ALT / AST / Adiponectin / Cholesterol / Glucose / Insulin / Leptin / Triglycerides: serum
Method: SR141716 was a kind gift from Sanofi-Aventis, France. SR141716 was dissolved in water with 0.1% Tween and given daily by gavage for 10 weeks. D-4F is an 18-mer of D-amino acids (Ac-D-W-F-K-A-F-Y-D-K-V-A-E-K-F-K-E-A-F-NH2)^4 (SEQ ID NO: 1) that was commercially synthesized (A & A Laboratories, San Diego Calif.) with 80% purity. D-4F was dissolved in the drinking water at a concentration of 60 μg/ml water for a calculated dose corrected for drug purity of 125 μg D-4F/mouse/day.
The high fat diet used was the RD “Western diet” (Research Diets, D12079B), which contains 41% of calories from fat, 43% calories from carbohydrate, and 17% of calories from protein); this diet was designed to approximate the “typical” human diet of North America and Europe.
as §1
Serum aspartate amino transferase (AST) and alanine aminotransferase (ALT) were measured with the Infinity AST and ALT liquid assay reagent (Thermo Electron Corporation, Louisville Colo., cat #TR70121 and TR71121). Serum triglycerides and cholesterol were measured with the Infinity cholesterol assay reagent (Thermo Electron Corporation, Louisville Colo., cat #TR22321 and TR13315). Serum glucose was measured with the Glucose (HK) assay kit (Sigma, St. Louis, Mo., cat #GAHK-20). Serum insulin was measured with the Mercodia Ultrasensitive mouse insulin ELISA kit (ALPCO Diagnostics, Salem N.H., cat #10 1150-01). The homeostasis model assessment insulin resistance index (HOMA-IR) was calculated as [fasting glucose (mmol/liter)*fasting insulin (microunits/ml)]/22.5^17, 18. Serum leptin was measured with the TiterZyme EIA mouse leptin kit (Assay Designs Inc, Ann Arbor Mich., cat #900-019). Serum adiponectin was measured with the mouse adiponectin kit (Biovendor LLC, Candler N.C., cat #RD 293023100). Thiobarbituric acid reactive substance (TBARS) was measured as previously described^19, 20; in brief, liver was homogenized and diluted 1:1 in 10% ice cold trichloroacetic acid. 0.5 ml supernatant or of a standard solution of 1,1,3,3-tetraethoxypropane was mixed with 0.5 ml of 0.6% (w/v) 4,6-dihydroxy-2-thiopyrimidine. The solution was boiled for 30 min, cooled and centrifuged. Absorbance was measured at 532 nm with a Shimadzu TV-2101 PC spectrophotometer. To measure hepatic glutathione (GSH), liver was homogenized and diluted 1:1 in 10% ice cold trichloroacetic acid. GSH in the supernatant was measured according to the recycling assay of Tietze^21.

[4] = 7 months Western diet followed by 2.5 months Western diet + drug
[5] = 7 months Western diet followed by 2.5 months chow + drug

In the case of `Cc1c(C(=O)NN2CCCCC2)nn(-c2ccc(Cl)cc2Cl)c1-c1ccc(Cl)cc1` [SR141716, reference compound], the “Fatty Change Degree of fat” value (C57Bl/6J mice [1]; [4]) is reported as 4 (2×) and 3 and 1, the “Fatty Change Type (predominant type)” value (C57Bl/6J mice [1]; [4]) is reported as “Microvesicular; also recorded: Mixed; also recorded: Macrovesicular” and the “Inflammatory Clusters” value (C57Bl/6J mice [1]; [4]) is reported as 1 and 2 (4×). For the same compound, the “Fatty Change Degree of fat” value (C57Bl/6J mice [1]; [5]) was 3 (2×) and 2 and 1, the “Fatty Change Type (predominant type)” value (C57Bl/6J mice [1]; [5]) was “Microvesicular” and the “Inflammatory Clusters” value (C57Bl/6J mice [1]; [5]) was 2 (3×) and 1. The “steatohepatitis (summary)” value (C57Bl/6J mice [1]; summary statement) was “improved steatohepatitis”, the “progression of fibrosis after onset of steatohepatitis” value (C57Bl/6J mice [2]) was “prevented progression of fibrosis” and the Body weight (C57Bl/6J mice [3]; [4]) was 29.1 ± 2.0 g. It also gave an HOMA-IR (C57Bl/6J mice [3]; [4]) of 8.8 ± 3.6, a Liver weight (C57Bl/6J mice [3]; [4]) of 1.54 ± 0.1 g and a Body weight (C57Bl/6J mice [3]; [5]) of 30.2 ± 1.1 g. The HOMA-IR (C57Bl/6J mice [3]; [5]) was 6.1 ± 2.0, the “Liver weight” value (C57Bl/6J mice [3]; [5]) was 1.39 ± 0.1 g and the GSH (C57Bl/6J mice [3]; [4]) was 68.7 ± 2.0 nmole/mg protein. It also gave a TBARS (C57Bl/6J mice [3]; [4]) of 17.1 ± 0.7 nmol/g tissue, a GSH (C57Bl/6J mice [3]; [5]) of 73.8 ± 2.2 nmole/mg protein and a TBARS (C57Bl/6J mice [3]; [5]) of 18.7 ± 1.09 nmol/g tissue. For the same compound, the ALT (C57Bl/6J mice [3]; [4]) was 54.8 ± 12.4 U/L, the AST (C57Bl/6J mice [3]; [4]) was 109.6 ± 10.4 U/L and the Adiponectin (C57Bl/6J mice [3]; [4]) was 18.4 ± 1.8 µg/mL. The Cholesterol (C57Bl/6J mice [3]; [4]) was 112.2 ± 13.7 mg/dL, the Glucose (C57Bl/6J mice [3]; [4]) was 136.3 ± 29.2 mg/dL and the Insulin (C57Bl/6J mice [3]; [4]) was 0.81 ± 0.15 ng/mL. For the same compound, the Leptin (C57Bl/6J mice [3]; [4]) was 2.36 ± 1.05 ng/mL, the Triglycerides (C57Bl/6J mice [3]; [4]) was 33.1 ± 2.2 mg/dL and the ALT (C57Bl/6J mice [3]; [5]) was 59.1 ± 11.4 U/L. The AST (C57Bl/6J mice [3]; [5]) was 69.1 ± 5.5 U/L, the Adiponectin (C57Bl/6J mice [3]; [5]) was 16.5 ± 2.0 µg/mL and the Cholesterol (C57Bl/6J mice [3]; [5]) was 105.3 ± 4.7 mg/dL. The Glucose (C57Bl/6J mice [3]; [5]) was 96.2 ± 3.0 mg/dL, the Insulin (C57Bl/6J mice [3]; [5]) was 0.89 ± 0.27 ng/mL and the Leptin (C57Bl/6J mice [3]; [5]) was 1.95 ± 0.72 ng/mL. The Triglycerides (C57Bl/6J mice [3]; [5]) was 47.0 ± 2.2 mg/dL, the “body weight (summary)” value (C57Bl/6J mice [3]; summary statement) was “promoted weight loss” and the “insulin resistance (summary)” value (C57Bl/6J mice [3]; summary statement) was “decreased insulin resistance”. The “leptin levels (summary)” value (C57Bl/6J mice [3]; summary statement) was “decreased leptin levels”.
